From US20100311729A1, “Substituted imidazopyridazines and pyrrolopyrimidines as lipid kinase inhibitors” (priority 2007, published 2010)

Tests used:
Assay type in all cases: biochemical
PI3K alfa = target: T1, PI3K alfa (Homo sapiens, UniProt P42336); assay: PI3 kinase assay (Kinase-Glo luminescence), PI3K alfa; conditions: Enzymatic Data; read-out: PI3K alfa IC50 [umol]
T1 construct: for the p110-a subunit (with a deletion of the first 20 amino acids); His tag (C); made in house; host or cells: baculovirus; Tn5 (Trichoplusia ni) or TiniPro insect cells
Procedure, shortened: (§1)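 Recombinant PI3K constructs (alfa 10 nM, delta 10 nM, gamma 150 nM) with 1 μM ATP and 10 μg/mL phosphatidylinositol in Tris pH 7.5, MgCl2, NaCl, CHAPS, DTT; 60 min (alfa, delta) or 120 min (gamma) at room temperature. ATP depletion read by Kinase-Glo luminescence; IC50 from 4-parameter logistic fit over 8 concentrations.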

PI3K beta = target: T2, PI3K beta (Homo sapiens, UniProt P42338); assay: PI3 kinase assay (Kinase-Glo luminescence), PI3K beta; conditions: Enzymatic Data; read-out: PI3K beta IC50 [umol]
T2 construct: for the full-length p110-b subunit are generated and fused by overlapping PCR; His tag (C); made in house; host or cells: baculovirus; Tn5 (Trichoplusia ni) or TiniPro insect cells
Procedure, shortened: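 PI3Kβ (25 nM, BV-949) with 10 μg/mL phosphatidylinositol in Tris pH 7.5/MgCl2/NaCl/CHAPS/DTT buffer; reaction started with 1 μM ATP, 60 min at room temperature. ATP depletion read by Kinase-Glo luminescence; 8-point dilutions, IC50 by four-parameter logistic fit.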

PI3K delta = target: T3, PI3K delta (Homo sapiens, UniProt O00329); assay: PI3 kinase assay (Kinase-Glo luminescence), PI3K delta; conditions: Enzymatic Data; read-out: PI3K delta IC50 [umol]
T3 construct: for the full-length p110-d subunit are generated and fused by overlapping PCR; His tag (C); made in house; host or cells: baculovirus; Tn5 (Trichoplusia ni) or TiniPro insect cells
Procedure, shortened: as §1

PI3K gamma = target: T4, PI3K gamma (Homo sapiens, UniProt P48736); assay: PI3 kinase assay (Kinase-Glo luminescence), PI3K gamma; conditions: Enzymatic Data; read-out: PI3K gamma IC50 [umol]
T4 construct: PI3Kγ BV-950 p110g(D144aa)-C-Term His Tag; His tag (C); made in house; host or cells: construct from the Roger Williams lab (MRC LMB) in pVL1393; baculovirus; Tn5 (Trichoplusia ni) or TiniPro insect cells
Procedure, shortened: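 Kinase-Glo luminescence assay with 1 μM ATP and 10 μg/mL phosphatidylinositol (final), reaction started by ATP addition. IC50 from 4-parameter logistic fit of percent inhibition at 8 compound concentrations (usually 10 down to 0.003 […]).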

T3 sequence (O00329 with tags, fused parts or gaps limits assumed): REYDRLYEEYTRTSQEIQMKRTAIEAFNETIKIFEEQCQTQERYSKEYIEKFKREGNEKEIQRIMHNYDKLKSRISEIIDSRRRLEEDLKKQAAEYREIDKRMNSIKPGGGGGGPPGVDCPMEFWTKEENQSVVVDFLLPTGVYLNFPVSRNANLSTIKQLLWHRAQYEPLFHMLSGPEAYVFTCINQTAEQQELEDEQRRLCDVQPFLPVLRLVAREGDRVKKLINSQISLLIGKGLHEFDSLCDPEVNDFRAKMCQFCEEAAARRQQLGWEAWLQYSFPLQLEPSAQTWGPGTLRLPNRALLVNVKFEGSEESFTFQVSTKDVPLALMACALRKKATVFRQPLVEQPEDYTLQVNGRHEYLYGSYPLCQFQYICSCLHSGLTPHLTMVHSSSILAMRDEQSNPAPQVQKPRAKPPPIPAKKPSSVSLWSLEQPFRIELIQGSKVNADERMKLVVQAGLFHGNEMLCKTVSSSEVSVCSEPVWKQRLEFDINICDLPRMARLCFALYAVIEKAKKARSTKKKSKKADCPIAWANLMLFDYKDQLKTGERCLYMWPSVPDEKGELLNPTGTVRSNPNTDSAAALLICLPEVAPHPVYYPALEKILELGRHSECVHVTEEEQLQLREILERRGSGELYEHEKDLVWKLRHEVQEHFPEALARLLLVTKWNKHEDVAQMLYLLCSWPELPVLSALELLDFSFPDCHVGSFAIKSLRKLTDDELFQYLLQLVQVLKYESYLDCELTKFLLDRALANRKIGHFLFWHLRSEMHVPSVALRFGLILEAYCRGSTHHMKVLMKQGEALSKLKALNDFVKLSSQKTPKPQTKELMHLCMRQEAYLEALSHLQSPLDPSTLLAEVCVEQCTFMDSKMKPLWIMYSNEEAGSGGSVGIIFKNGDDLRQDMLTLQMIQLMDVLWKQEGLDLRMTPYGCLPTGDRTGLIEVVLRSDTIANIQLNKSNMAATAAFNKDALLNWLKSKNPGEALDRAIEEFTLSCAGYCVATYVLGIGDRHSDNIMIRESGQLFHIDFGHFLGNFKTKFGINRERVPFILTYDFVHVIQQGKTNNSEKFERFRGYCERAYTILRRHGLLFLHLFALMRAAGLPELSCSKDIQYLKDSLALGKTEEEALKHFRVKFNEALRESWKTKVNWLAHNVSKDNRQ
T4 sequence (P48736 144-1102 limits assumed): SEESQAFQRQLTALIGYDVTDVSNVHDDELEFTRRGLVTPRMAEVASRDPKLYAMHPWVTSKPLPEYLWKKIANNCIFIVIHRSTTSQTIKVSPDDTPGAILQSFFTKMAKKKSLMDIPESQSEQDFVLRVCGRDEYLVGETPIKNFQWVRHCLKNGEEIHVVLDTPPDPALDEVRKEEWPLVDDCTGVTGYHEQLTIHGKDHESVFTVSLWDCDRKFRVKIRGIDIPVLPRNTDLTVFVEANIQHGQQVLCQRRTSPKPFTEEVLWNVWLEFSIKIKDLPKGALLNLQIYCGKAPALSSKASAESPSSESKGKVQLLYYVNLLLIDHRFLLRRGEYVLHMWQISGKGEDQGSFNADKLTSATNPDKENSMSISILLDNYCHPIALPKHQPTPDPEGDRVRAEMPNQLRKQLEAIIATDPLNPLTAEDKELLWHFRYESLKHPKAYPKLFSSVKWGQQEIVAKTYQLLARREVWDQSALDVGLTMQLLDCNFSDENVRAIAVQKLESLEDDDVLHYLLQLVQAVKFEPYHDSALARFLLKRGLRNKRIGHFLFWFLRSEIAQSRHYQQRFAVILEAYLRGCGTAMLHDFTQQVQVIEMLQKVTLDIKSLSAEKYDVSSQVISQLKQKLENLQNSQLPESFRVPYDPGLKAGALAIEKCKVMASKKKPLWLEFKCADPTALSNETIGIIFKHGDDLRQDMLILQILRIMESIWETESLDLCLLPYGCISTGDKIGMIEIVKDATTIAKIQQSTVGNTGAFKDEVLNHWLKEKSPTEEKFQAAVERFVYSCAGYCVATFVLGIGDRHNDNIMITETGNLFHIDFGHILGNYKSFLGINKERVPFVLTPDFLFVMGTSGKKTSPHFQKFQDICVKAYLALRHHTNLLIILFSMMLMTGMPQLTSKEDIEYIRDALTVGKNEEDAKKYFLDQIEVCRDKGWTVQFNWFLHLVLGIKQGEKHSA
T1 sequence (P42336 with tags, fused parts or gaps limits assumed): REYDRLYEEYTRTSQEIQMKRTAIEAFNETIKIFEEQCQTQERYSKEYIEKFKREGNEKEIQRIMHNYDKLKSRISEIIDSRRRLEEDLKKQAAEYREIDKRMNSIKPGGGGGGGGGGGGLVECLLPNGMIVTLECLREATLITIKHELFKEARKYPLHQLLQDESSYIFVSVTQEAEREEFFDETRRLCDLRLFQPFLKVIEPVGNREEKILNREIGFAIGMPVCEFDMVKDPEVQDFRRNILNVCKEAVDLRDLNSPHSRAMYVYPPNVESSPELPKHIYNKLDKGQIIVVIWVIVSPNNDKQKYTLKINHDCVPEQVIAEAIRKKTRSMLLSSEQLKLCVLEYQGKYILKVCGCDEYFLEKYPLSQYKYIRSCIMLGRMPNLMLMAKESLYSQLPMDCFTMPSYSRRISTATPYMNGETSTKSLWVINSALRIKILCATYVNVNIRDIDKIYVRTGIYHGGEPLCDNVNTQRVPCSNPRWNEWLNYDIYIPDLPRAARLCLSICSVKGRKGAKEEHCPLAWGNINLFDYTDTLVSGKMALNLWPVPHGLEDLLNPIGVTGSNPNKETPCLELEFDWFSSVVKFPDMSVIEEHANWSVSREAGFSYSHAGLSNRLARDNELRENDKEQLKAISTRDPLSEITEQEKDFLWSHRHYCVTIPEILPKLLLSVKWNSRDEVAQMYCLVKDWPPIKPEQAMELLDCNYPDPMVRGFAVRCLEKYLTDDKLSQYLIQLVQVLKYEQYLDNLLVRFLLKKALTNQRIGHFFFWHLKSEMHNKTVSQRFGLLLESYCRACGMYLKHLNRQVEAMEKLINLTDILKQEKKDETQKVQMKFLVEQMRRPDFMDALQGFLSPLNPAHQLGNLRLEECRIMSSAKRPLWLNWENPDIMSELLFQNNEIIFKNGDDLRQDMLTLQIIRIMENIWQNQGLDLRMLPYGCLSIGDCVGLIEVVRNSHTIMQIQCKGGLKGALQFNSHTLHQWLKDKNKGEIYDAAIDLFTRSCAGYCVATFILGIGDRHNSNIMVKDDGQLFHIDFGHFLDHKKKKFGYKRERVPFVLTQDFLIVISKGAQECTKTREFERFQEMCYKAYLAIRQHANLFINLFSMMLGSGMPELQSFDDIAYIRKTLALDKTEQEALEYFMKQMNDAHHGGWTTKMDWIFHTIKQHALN
T2 sequence (P42338 with tags, fused parts or gaps limits assumed): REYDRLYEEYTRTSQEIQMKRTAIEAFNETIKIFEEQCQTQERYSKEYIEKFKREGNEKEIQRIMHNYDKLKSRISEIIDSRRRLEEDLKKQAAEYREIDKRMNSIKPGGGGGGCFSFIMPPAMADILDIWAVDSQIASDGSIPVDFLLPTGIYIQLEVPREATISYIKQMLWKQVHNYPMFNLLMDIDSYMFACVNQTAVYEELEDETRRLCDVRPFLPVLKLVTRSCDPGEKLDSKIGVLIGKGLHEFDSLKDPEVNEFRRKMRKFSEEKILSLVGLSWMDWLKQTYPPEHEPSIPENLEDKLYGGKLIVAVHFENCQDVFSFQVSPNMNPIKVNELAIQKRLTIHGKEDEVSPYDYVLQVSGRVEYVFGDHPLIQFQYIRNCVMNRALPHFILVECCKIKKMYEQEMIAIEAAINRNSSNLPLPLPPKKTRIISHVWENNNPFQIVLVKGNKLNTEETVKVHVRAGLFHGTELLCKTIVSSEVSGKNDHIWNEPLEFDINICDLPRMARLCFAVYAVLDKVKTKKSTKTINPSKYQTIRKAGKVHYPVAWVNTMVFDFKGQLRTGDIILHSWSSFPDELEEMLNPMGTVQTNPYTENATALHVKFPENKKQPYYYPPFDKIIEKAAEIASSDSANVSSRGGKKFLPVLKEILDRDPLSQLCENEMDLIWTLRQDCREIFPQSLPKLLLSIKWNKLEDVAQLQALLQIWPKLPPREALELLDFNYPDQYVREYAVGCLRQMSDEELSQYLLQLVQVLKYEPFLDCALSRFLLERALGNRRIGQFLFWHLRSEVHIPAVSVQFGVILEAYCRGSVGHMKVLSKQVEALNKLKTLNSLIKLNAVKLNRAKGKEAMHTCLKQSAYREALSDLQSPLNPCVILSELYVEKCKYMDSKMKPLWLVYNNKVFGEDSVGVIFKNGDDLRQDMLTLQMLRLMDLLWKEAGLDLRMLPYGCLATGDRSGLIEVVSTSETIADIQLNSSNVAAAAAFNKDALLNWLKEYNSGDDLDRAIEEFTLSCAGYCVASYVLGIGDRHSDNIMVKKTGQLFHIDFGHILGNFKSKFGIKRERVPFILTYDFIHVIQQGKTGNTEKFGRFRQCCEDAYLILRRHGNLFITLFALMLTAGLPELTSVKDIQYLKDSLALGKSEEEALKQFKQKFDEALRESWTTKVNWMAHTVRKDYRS

Row | Compound | IC50 (PI3K alfa) | IC50 (PI3K beta) | IC50 (PI3K delta) | IC50 (PI3K gamma)
1 | COc1cc(-c2cnc3ccc(-c4cnc(N)c(C(F)(F)F)c4)nn23)ccc1C(=O)N1CCN(Cc2ccccn2)CC1 [Example 116, {4-[6-(6-Amino-5-trifluoro-methyl-pyridin-3-yl)-imidazo [1,2-b]pyridazin-3-yl]-2-methoxy-phenyl}-(4-pyridin-2-ylmethyl-piperazin-1-yl)-methanone] | 3 nM | 42 nM | 4 nM | 410 nM
2 | COc1cc(-c2cnc3ccc(-c4cnc(N)c(C(F)(F)F)c4)nn23)c(F)cc1C(=O)NCCN1CCOCC1 [Example 158, 4-[6-(6-Amino-5-trifluoro-methyl-pyridin-3-yl)-imidazo [1,2-b]pyridazin-3-yl]-5-fluoro-2-methoxy-N-(2-morpholin-4-yl-ethyl)-benzamide] | 38 nM | 388 nM | 113 nM | > 9100 nM
3 | CC(C)(C)OC(=O)NCCn1cc(-c2ccc3ncc(-c4cnc(N)c(C(F)(F)F)c4)n3n2)ccc1=O [Example 69, (2-{5-[3-(6-Amino-5-trifluoro-methyl-pyridin-3-yl)-imidazo [1,2-b]pyridazin-6-yl]-2-oxo-2H-pyridin-1-yl}-ethyl)-carbamic acid tert-butyl ester] | 50 nM | 1430 nM | 156 nM | 2430 nM
4 | CCN(CC)CCn1cnc2cc(-c3cnc4ccc(-c5cnc(N)c(C(F)(F)F)c5)nn34)cnc21 [Example 149, 5-{3-[3-(2-Diethyl-amino-ethyl)-3H-imidazo [4,5-b]pyridin-6-yl]-imidazo [1,2-b]pyridazin-6-yl}-3-trifluoro-methyl-pyridin-2-ylamine] | 19 nM | 40 nM | 14 nM | 404 nM
5 | c1cnn(CCOc2ccc(-c3ccc4ncc(-c5cnc6[nH]ccc6c5)n4n3)cc2)c1 [Example 93, 6-[4-(2-Pyrazol-1-yl-ethoxy)-phenyl]-3-(1H-pyrrolo [2,3-b]pyridin-5-yl)-imidazo [1,2-b] pyridazine] | 157 nM | 6930 nM | 1270 nM | 5840 nM
6 | COc1cc(-c2cnc3ccc(-c4cnc(N)c(C(F)(F)F)c4)nn23)ccc1C(=O)N1CCN(CC(=O)N2CCOCC2)CC1 [Example 119, 2-(4-{4-[6-(6-Amino-5-trifluoro-methyl-pyridin-3-yl)-imidazo [1,2-b]pyridazin-3-yl]-2-methoxy-benzoyl}-piperazin-1-yl)-1-morpholin-4-yl-ethanone] | 9 nM | 137 nM | 13 nM | 406 nM
7 | CCS(=O)(=O)c1ccc(-c2cnc3ccc(-c4cnc(N)c(C(F)(F)F)c4)nn23)cc1 [Example 33, 5-[3-(4-Ethanesulfonyl-phenyl)-imidazo[1,2-b]pyridazin-6-yl]-3-trifluoro-methyl-pyridin-2-ylamine] | 63 nM | 240 nM | 103 nM | 1220 nM
8 | CS(=O)(=O)Nc1ccc(-c2cnc3ccc(-c4cnc(N)c(C(F)(F)F)c4)nn23)cc1 [Example 45, N-{4-[6-(6-Amino-5-trifluoro-methyl-pyridin-3-yl)-imidazo [1,2-b]pyridazin-3-yl]-phenyl}-methane-sulfonamide] | 154 nM | 378 nM | 282 nM | 7070 nM
9 | COc1ccc(-c2ccc3ncc(-c4ccc(N)nc4)n3n2)cc1OC [Example 34, 5-[6-(3,4-Dimethoxy-phenyl)-imidazo [1,2-b]pyridazin-3-yl]-pyridin-2-ylamine] | 103 nM | 718 nM | 143 nM | 1310 nM
10 | Nc1ncc(-c2ccc3ncc(-c4ccc(C(=O)N5CCN(Cc6ccccn6)CC5)c(F)c4)n3n2)cc1C(F)(F)F [Example 101, {4-[6-(6-Amino-5-trifluoro-methyl-pyridin-3-yl)-imidazo [1,2-b]pyridazin-3-yl]-2-fluoro-phenyl}-(4-pyridin-2-ylmethyl-piperazin-1-yl)-methanone] | 8 nM | 168 nM | 30 nM | 1170 nM
11 | Nc1ncc(-c2ccc3ncc(-c4ccc(OCCCNC(=O)C5CC5)cc4)n3n2)cc1C(F)(F)F [Example 142, Cyclo-propane-carboxylic acid (3-{4-[6-(6-amino-5-trifluoro-methyl-pyridin-3-yl)-imidazo [1,2-b]pyridazin-3-yl]-phenoxy}-propyl)-amide] | 45 nM | 3160 nM | 319 nM | > 9100 nM
12 | Nc1ncc(-c2ccc3ncc(-c4ccc(S(=O)(=O)N5CCOCC5)cc4)n3n2)cc1C(F)(F)F [Example 102, 5-{3-[4-(Morpholine-4-sulfonyl)-phenyl]-imidazo[1,2-b]pyridazin-6-yl}-3-trifluoromethyl-pyridin-2-ylamine] | 43 nM | 1270 nM | 17 nM | 1060 nM
13 | COc1cc(-c2ccc3ncc(-c4ccc(S(=O)(=O)CCN5CCOCC5)cc4)n3n2)ccc1OCCN1CCCC1=O [Example 111, 1-[2-(2-Methoxy-4-{3-[4-(2-morpholin-4-yl-ethane-sulfonyl)-phenyl]-imidazo [1,2-b]pyridazin-6-yl}-phenoxy)-ethyl]-pyrrolidin-2-one] | 954 nM | 7550 nM | 427 nM | > 9100 nM
14 | Nc1ncc(-c2ccc3ncc(-c4ccc(C(=O)NCCN5CCOCC5)cc4F)n3n2)cc1C(F)(F)F [Example 151, 4-[6-(6-Amino-5-trifluoro-methyl-pyridin-3-yl)-imidazo [1,2-b]pyridazin-3-yl]-3-fluoro-N-(2-morpholin-4-yl-ethyl)-benzamide] | 8 nM | 141 nM | 27 nM | 946 nM
15 | Nc1ncc(-c2ccc3ncc(-c4ccc(C(=O)NCCN5CCOCC5)cc4)n3n2)cc1C(F)(F)F [Example 80, 4-[6-(6-Amino-5-trifluoro-methyl-pyridin-3-yl)-imidazo [1,2-b]pyridazin-3-yl]-N-(2-morpholin-4-yl-ethyl)-benzamide] | 15 nM | 210 nM | 57 nM | 1160 nM
16 | Nc1ncc(-c2cnc3ccc(-c4ccc(OCCCNC(=O)C5CC5)nc4)nn23)cc1C(F)(F)F [Example 177, Cyclo-propane-carboxylic acid (3-{5-[3-(6-amino-5-trifluoro-methyl-pyridin-3-yl)-imidazo [1,2-b]pyridazin-6-yl]-pyridin-2-yloxy}-propyl)-amide] | 11 nM | 331 nM | 92 nM | > 9100 nM
17 | Nc1ncc(-c2ccc3ncc(-c4cncc(C(F)(F)F)c4)n3n2)cc1C(F)(F)F [Example 54, 3-Trifluoro-methyl-5-[3-(5-trifluoro-methyl-pyridin-3-yl)-imidazo [1,2-b]pyridazin-6-yl]-pyridin-2-ylamine] | 147 nM | 274 nM | 231 nM | 814 nM
18 | COC(=O)NCCCOc1ccc(-c2ccc3ncc(-c4cnc(N)c(C(F)(F)F)c4)n3n2)cc1OC [Example 50, (3-{4-[3-(6-Amino-5-trifluoromethyl-pyridin-3-yl)-imidazo[1,2-b]pyridazin-6yl]-2-methoxy-phenoxy}-propyl)-carbamic acid methyl ester] | 165 nM | 2190 nM | 1010 nM | 2740 nM
